What was measured:
folate receptor beta [1] = target: T1, folate receptor beta (Homo sapiens (Human), UniProt P14207); assay: Folate receptor SPR assay (biotinylated folate receptor beta on streptavidin chip); format: binding; settings: for Rmax: biotinylated folate receptor beta on streptavidin chip; for kd / Kd / kon: multi-cycle kinetics, 25° C., 1:1 model; for Kd: read-out: FOLR2Biotin - SPR Kd; for kon: pH 7.5, read-out: ka
Protocol: Folate receptor SPR binding assays were conducted on a Biacore 8K instrument (Cytiva) using biotinylated folate receptor beta (Acro Biosystems). Briefly, folate receptor was immobilized at -550 RU on a streptavidin chip (Cytiva) in 10 mM HEPES pH 7.5, 150 mM NaCl, 0.05% Tween 20. Multi-cycle kinetic studies were conducted with 8 compound concentrations using 2-fold dilutions in 10 mM HEPES pH 7.5, 150 mM NaCl, 0.05% Tween 20, 2% DMSO at 25° C. A flow rate or 75 μl/mmn with an association time of 120 s and a dissociation time of 600 s were used. Surfaces were regenerated with 4 M MgCl2 at 30 μl/min for 30 s. Data were fit to a 1:1 model to determine the reported binding parameters.

folate receptor beta [2] = target: T1, folate receptor beta; assay: Folate receptor binding assay (fluorescence polarization); settings: 2.5 nM folate receptor beta, 2 nM FR-Cy probe, 2 hr incubation; read-out: FOLR2-FP
Protocol: Folate receptor binding was measured in black 96-well plates using a fluorescence polarization assay. A fluorescent probe consisting of a folate analog linked to Cy5 (FR-Cy) was custom synthesized.
Test compounds were resuspended in DMSO and 3-fold serial dilutions were made from 300-0.015 μM (100× final concentrations). Binding reactions were conducted in 200 μl final volume in 20 mM Hepes (pH 7.5) 250 mM NaCl 0.0150 Tween-20 1% DMSO with 2.5 nM folate receptor beta (Acro Biosystems) and 2 nM probe. Fluorescence polarization was measured using λex=620 nm, λem=688 nm on an Envision plate reader (Perkin Elmer) after 2 hr incubation time. Dose responses were conducted in duplicate and normalized to the response with DMSO (high) and 1 μM folic acid (low) on each plate. IC50 values were determined by fitting to 4-parameter curves in GraphPad Prism.

[3] = target: TNFα and streptavidin immobilized FOL2R (Homo sapiens (Human), UniProt P01375+P14207); assay: Ternary complex SPR assay; format: binding; settings: 10 nM compound, max response normalized to expected response; for TC 60 nM taggless TNF normalized: 60 nM untagged TNF; for TC 150 nM- tagless TNF Normalized: 150 nM untagged TNF; for TC 300 nM- tagless TNF Normalized: 300 nM untagged TNF
TNFα and streptavidin immobilized FOL2R, sequence (P14207 17-230): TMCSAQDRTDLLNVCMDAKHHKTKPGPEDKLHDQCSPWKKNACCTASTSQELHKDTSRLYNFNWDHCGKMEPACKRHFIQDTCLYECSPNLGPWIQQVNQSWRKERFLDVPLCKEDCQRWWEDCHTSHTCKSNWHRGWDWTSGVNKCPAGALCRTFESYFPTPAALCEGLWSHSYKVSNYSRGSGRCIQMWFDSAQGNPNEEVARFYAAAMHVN
TNFα and streptavidin immobilized FOL2R, sequence (P01375 77-233): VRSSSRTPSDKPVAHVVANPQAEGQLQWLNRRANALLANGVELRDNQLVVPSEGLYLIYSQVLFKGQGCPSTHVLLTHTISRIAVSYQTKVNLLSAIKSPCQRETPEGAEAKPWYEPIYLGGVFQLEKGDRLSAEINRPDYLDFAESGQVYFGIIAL
Protocol: Folate receptor-TNFα ternary complex SPR assays were conducted on a Biacore 8K instrument (Cytiva) using biotinylated folate receptor beta (Acro Biosystems). Folate receptor was immobilized at -1800 RU on a streptavidin chip (Cytiva) in 10 mM HEPES pH 7.5, 150 mM NaCl, 0.05% Tween 20. Untagged TNF was preincubated with 10 nM compound for 6 hr in 10 mM HEPES pH 7.5, 150 mM NaCl, 0.05 Tween 20, 2% DMSO at 25° C. Samples were then injected over the folate receptor surface at 30 μl/min with an association time of 110 s and a dissociation time of 600 s. Surfaces were regenerated with 4 M MgCl2 at 30 μl/mm for 30 s. The maximum measured response was normalized by comparison to the maximum expected response for each compound.

TNFα = TNFα (Homo sapiens (Human), UniProt P01375); assay: TNFα binding assay (time-resolved FRET, biotinylated TNFα); settings: 1 nM biotinylated TNFα, 80 nM probe, 16 hr incubation; read-out: TNF-HTRF-biotin
TNFα, sequence (P01375 77-233): as above
Protocol: TNFα binding was measured in black 96-well plates using a time-resolved FRET assay using a previously described fluorescence acceptor TNFα probe (Xiao et al J. Med. Chem. 2020). Biotinylated TNFα was purchased from Acro Biosystems. Binding reactions were conducted in 20 mM Hepes (pH 7.5) 10 mM MgCl2 0.015% Tween-20 0.05 mg/ml BSA 2% DMSO with 1 nM TNFα 0.5 nM Streptavidin-Tb and 80 nM probe. Test compounds were resuspended in DMSO and 3-fold serial dilutions were made at 100× final concentrations. Fluorescence was measured using λex=340 nm, λem=490, 520 nm on an SpectraMax M5e plate reader (Molecular Devices) after 16 hr incubation time. Dose responses were conducted in duplicate and normalized to the response with DMSO (high) and 100 nM (R)-3-(1-((3-chloro-7-fluoro-6-(2-(2-hydroxypropan-2-yl)pyrimidin-5-yl)-2-methyl-1,5-naphthyridin-4-yl)amino)ethyl)-4-fluorobenzonitrile (low) on each plate. IC50 values were determined by fitting to 4-parameter curves in GraphPad Prism.

T1 sequence (P14207 17-255): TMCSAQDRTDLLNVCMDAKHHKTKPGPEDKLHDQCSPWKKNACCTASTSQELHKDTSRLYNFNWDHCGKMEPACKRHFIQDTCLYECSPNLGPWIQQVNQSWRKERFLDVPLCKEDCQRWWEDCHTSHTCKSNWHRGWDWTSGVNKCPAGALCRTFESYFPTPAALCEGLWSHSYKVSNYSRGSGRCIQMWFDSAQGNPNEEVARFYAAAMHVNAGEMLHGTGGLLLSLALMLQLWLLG

Cc1nc2cc(F)c(-c3cnc(N4CCN(C(=O)COCCOCCN5CCC6(CC5)CCN(C(=O)CC[C@H](NC(=O)c5ccc(NCc7cnc8nc(N)nc(O)c8n7)cc5)C(=O)O)CC6)CC4)nc3)nc2c(N[C@H](C)c2cc(C#N)ccc2F)c1Cl [Compound I-84, (S)-2-(4-(((2-amino-4-hydroxypteridin-6-yl)methyl)amino)benzamido)-5-(9-(2-(2-(2-(4-(5-(7-chloro-8-(((R)-1-(5-cyano-2-fluorophenyl)ethyl)amino)-3-fluoro-6-methyl-1,5-naphthyridin-2-yl)pyrimidin-2-yl)piperazin-1-yl)-2-oxoethoxy)ethoxy)ethyl)-3,9-diazaspiro[5.5]undecan-3-yl)-5-oxopentanoic acid]
Rmax (folate receptor beta [1]): 19.7 RU | kd (folate receptor beta [1]): 0.000153 s⁻¹ | Kd (folate receptor beta [1]): 0.0059 nM | kon (folate receptor beta [1]): 2.59e+07 M⁻¹ s⁻¹ | IC50 (folate receptor beta [2]): 6.9 nM | TC 60 nM taggless TNF normalized [3]: 10.8% | TC 150 nM- tagless TNF Normalized [3]: 17.4% | TC 300 nM- tagless TNF Normalized [3]: 17.3% | IC50 (TNFα): 9 nM

Cc1nc2cc(F)c(-c3cnc(N4CCN(C(=O)COCCn5cc(COCCOCCOCCOCCNC(=O)CCCNC(=O)c6ccc(NCc7cnc8nc(N)nc(O)c8n7)cc6)nn5)CC4)nc3)nc2c(N[C@H](C)c2cc(C#N)ccc2F)c1Cl [Compound I-96, (R)-4-(((2-amino-4-hydroxypteridin-6-yl)methyl)amino)-N-(1-(1-(2-(2-(4-(5-(7-chloro-8-((1-(5-cyano-2-fluorophenyl)ethyl)amino)-3-fluoro-6-methyl-1,5-naphthyridin-2-yl)pyrimidin-2-yl)piperazin-1-yl)-2-oxoethoxy)ethyl)-1H-1,2,3-triazol-4-yl)-15-oxo-2,5,8,11-tetraoxa-14-azaoctadecan-18-yl)benzamide]
Rmax (folate receptor beta [1]): 17.1 RU | kd (folate receptor beta [1]): 0.00129 s⁻¹ | Kd (folate receptor beta [1]): 0.101 nM | kon (folate receptor beta [1]): 1.27e+07 M⁻¹ s⁻¹ | IC50 (folate receptor beta [2]): 20 nM | TC 60 nM taggless TNF normalized [3]: 12.3% | TC 150 nM- tagless TNF Normalized [3]: 17.1% | TC 300 nM- tagless TNF Normalized [3]: 19.2% | IC50 (TNFα): 56 nM

Cc1nc2cc(F)c(-c3cnc(N4CCN(C(=O)COCCOCCOCCOCCOCCOCCn5cc(CC[C@H](NC(=O)c6ccc(N(C)Cc7ccc8nc(N)[nH]c(=O)c8c7)cc6)C(=O)O)nn5)CC4)nc3)nc2c(N[C@H](C)c2cc(C#N)ccc2F)c1Cl [Compound I-85, (S)-2-(4-(((2-amino-4-oxo-3,4-dihydroquinazolin-6-yl)methyl)(methyl)amino)benzamido)-4-(1-(20-(4-(5-(7-chloro-8-(((R)-1-(5-cyano-2-fluorophenyl)ethyl)amino)-3-fluoro-6-methyl-1,5-naphthyridin-2-yl)pyrimidin-2-yl)piperazin-1-yl)-20-oxo-3,6,9,12,15,18-hexaoxaicosyl)-1H-1,2,3-triazol-4-yl)butanoic acid]
Rmax (folate receptor beta [1]): 11.9 RU | kd (folate receptor beta [1]): 0.00112 s⁻¹ | Kd (folate receptor beta [1]): 0.088 nM | kon (folate receptor beta [1]): 1.27e+07 M⁻¹ s⁻¹ | IC50 (folate receptor beta [2]): 12 nM | TC 60 nM taggless TNF normalized [3]: 9.7% | TC 300 nM- tagless TNF Normalized [3]: 15.1% | IC50 (TNFα): 13 nM

Cc1nc2cc(F)c(-c3cnc(N4CCN(C(=O)COCCOCCOCCOCCOCCn5cc(CC[C@H](NC(=O)c6ccc(NCc7cnc8nc(N)nc(O)c8n7)cc6)C(=O)O)nn5)CC4)nc3)nc2c(N[C@H](C)c2cc(C#N)ccc2F)c1Cl [Compound I-89, (S)-2-(4-(((2-amino-4-hydroxypteridin-6-yl)methyl)amino)benzamido)-4-(1-(17-(4-(5-(7-chloro-8-(((R)-1-(5-cyano-2-fluorophenyl)ethyl)amino)-3-fluoro-6-methyl-1,5-naphthyridin-2-yl)pyrimidin-2-yl)piperazin-1-yl)-17-oxo-3,6,9,12,15-pentaoxaheptadecyl)-1H-1,2,3-triazol-4-yl)butanoic acid]
Rmax (folate receptor beta [1]): 31.1 RU | kd (folate receptor beta [1]): 0.000337 s⁻¹ | Kd (folate receptor beta [1]): 0.223 nM | kon (folate receptor beta [1]): 1.51e+06 M⁻¹ s⁻¹ | IC50 (folate receptor beta [2]): 8.4 nM | TC 60 nM taggless TNF normalized [3]: 11.6% | TC 300 nM- tagless TNF Normalized [3]: 15% | IC50 (TNFα): 42 nM

Source: patent US20250127913A1, “BIFUNCTIONAL FOLATE RECEPTOR BINDING COMPOUNDS” (LYCIA THERAPEUTICS, INC., priority 2021, published 2025)
